The source of these data is patent US20260226071A1, “2, 4-DIANILINOPYRIMIDINE-BASED AURORA-A KINASE SELECTIVE DEGRADATION INDUCING COMPOUNDS” (UPPTHERA, INC., priority 2023, published 2026).

The target in one assay is T1, Aurora kinase A (AURKA) (Homo sapiens, UniProt O14965).
T1 construct: endogenous in cells; host or cells: HeLa LgBit (AURKA-HiBit KI), CRISPR/Cas9 knock-in at the endogenous AURKA locus
T1 sequence (O14965 1-403): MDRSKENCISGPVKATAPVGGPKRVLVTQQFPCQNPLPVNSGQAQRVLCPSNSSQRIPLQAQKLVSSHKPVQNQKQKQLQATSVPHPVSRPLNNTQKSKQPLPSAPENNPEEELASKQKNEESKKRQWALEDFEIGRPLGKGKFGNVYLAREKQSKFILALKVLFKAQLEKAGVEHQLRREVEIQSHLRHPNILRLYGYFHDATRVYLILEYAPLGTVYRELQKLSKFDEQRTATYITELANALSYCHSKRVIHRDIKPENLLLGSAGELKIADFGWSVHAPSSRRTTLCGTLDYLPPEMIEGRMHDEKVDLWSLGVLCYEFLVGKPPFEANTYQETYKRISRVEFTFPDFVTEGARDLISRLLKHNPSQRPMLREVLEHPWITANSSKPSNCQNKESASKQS
In words: Luciferase assay for AURKA in HeLa LgBit (AURKA-HiBit KI) cell line. In kind it is cell-based. The following applies: HeLa LgBit (AURKA-HiBit KI) cells, measured after 12 hours. Summed up:
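HeLa cells stably expressing LgBit, with HiBit knocked in at the C-terminus of endogenous AURKA; 3×10^4 cells seeded, 18 h, then Endurazine substrate 2 h. Compounds tested at 10 nM or 100 nM; luminescence read at 470-480 nm after 12 h as real-time read-out.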

In a further assay the test system is NCI-H446 cell line. In words: Cell viability assay for NCI-H446 cell line. In kind it is cell-based. The following applies: Homo sapiens, NCI-H446, 120 h; H446 cells, 5 days culture, EZ-Cytox; read-out: IC50 value (Level). The text has this: The NCI-H446 (hereafter H446) cell lines were provided from American Type Culture Collection (ATCC). For cell culture, RPMI medium 1640 (Gibco, Cat. No. 22400-089; Lot. No. 2522717), FBS (Gibco, Cat. No. 16000-044; Lot. No. 2716756P), Penicillin/Streptomycin (PS) (Gibco, Cat. No. 15140-122; Lot. No. 2585636), 75T cell culture flask (SPL, Cat. No. 70075), 96 well cell culture plate (SPL, Cat. No. 30096), PBS pH 7.4 (Gibco, Cat. No. 10010-023; Lot. No. 2561466), TrypLE™ Express (Gibco, Cat. No. 12605-010; Lot. No. 2492811), counting chamber (hematocytometer) (Hirschmann, Cat. No. 8100204) and 0.4% Trypan Blue solution (DYNEBIO, Cat. No. CBT3710; Lot. No. 20231017) were used. Cells were cultured in RPMI 1640 medium supplemented with 10% FBS and 1% PS and incubated at 37° C., 5% CO2 condition in CO2 incubator (ThermoScientific, Cat. No. 4111).
For experiment, the present compounds were fully dissolved in DMSO (Sigma-Aldrich Cat. No. D2438, Lot. No. RNBL7287.
In each well of 96-well cell culture plate, […] cells of H446 cell lines were seeded in 150 μl of total medium volume. After 24 hours of cell seeding, the present compounds were treated.
The present compounds were each diluted 3-folds from the highest concentration of 1000 nM to the lowest concentration of 0.15 nM. The compound was added to each well to make the total volume of […] and the cells were cultured for 5 days in CO2 incubator (Thermo Fisher Science, Cat. No. 4111).
Thereafter, 20 μl of EZ-Cytox (DOGEN, Cat. NO. EZ-3000, Lot. No. DLS2308) was added to each well and the cells were cultured for 4 hours at the same condition in CO2 incubator. After culture, the absorbance of the sample was measured by setting the wavelength of a plate reader (BMG Labtech, CLARIOstar Plus) to […]. The samples were shaked for 2 minutes in the plate reader before measurement.

The term IC50 denotes the concentration needed to halve the response being measured. Consider `O=C1CCC(c2ccc(N3CCN(CCC4CCN(NC(=O)c5ccc(Nc6ncc(F)c(Nc7ccc(C(=O)Nc8ccccc8Cl)cc7)n6)cc5)CC4)CC3)nc2)C(=O)N1` (stereo not drawn) [Compound 56, N-(2-chlorophenyl)-4-[[2-[4-[[4-[2-[4-[5-(2,6-dioxo-3-piperidyl)-2-pyridyl]piperazin-1-yl]ethyl]-1-piperidyl]carbamoyl]anilino]-5-fluoro-pyrimidin-4-yl]amino]benzamide], for which the “luminescence value (Level)” value was “A (A is <0.3)” at Aurora kinase A (AURKA) (10 nM compound) and “A (A is <0.2)” on Aurora kinase A (AURKA) (100 nM compound). For the same compound, in the assay on NCI-H446 cell line, the IC50 is less than 50 nM.

Consider `C[C@H]1CN(CCC2CCN(NC(=O)c3ccc(Nc4ncc(F)c(Nc5ccc(C(=O)Nc6ccccc6Cl)cc5)n4)cc3)CC2)CCN1c1ccc(C2CCC(=O)NC2=O)cc1` (stereo partly drawn) [Compound 114, N-(2-chlorophenyl)-4-((2-((4-((4-(2-((3S)-4-(4-(2,6-dioxopiperidin-3-yl)phenyl)-3-methylpiperazin-1-yl)ethyl)piperidin-1-yl)carbamoyl)phenyl)amino)-5-fluoropyrimidin-4-yl)amino)benzamide], for which the “luminescence value (Level)” value on Aurora kinase A (AURKA) (10 nM compound) was “A (A is <0.3)”; at Aurora kinase A (AURKA) (100 nM compound), “A (A is <0.2)”. For the same compound, in the assay on NCI-H446 cell line, the IC50 is less than 50 nM.

On to `CN(CC1CCN(c2ccc(NC3CCC(=O)NC3=O)cc2F)CC1)[C@H]1CC[C@H](NC(=O)c2ccc(Nc3ncc(F)c(Nc4ccc(C(=O)Nc5ccccc5Cl)cc4)n3)cc2)CC1` (stereo partly drawn) [Compound 66, N-(2-chlorophenyl)-4-[[2-[4-[[4-[[1-[4-[(2,6-dioxo-3-piperidyl)amino]-2-fluoro-phenyl]-4-piperidyl]methyl-methyl-amino]cyclohexyl]carbamoyl]anilino]-5-fluoro-pyrimidin-4-yl]amino]benzamide], for which the “luminescence value (Level)” value at Aurora kinase A (AURKA) (10 nM compound) is “A (A is <0.3)”; at Aurora kinase A (AURKA) (100 nM compound), “A (A is <0.2)”. Also, the IC50 in the assay with NCI-H446 cell line was less than 50 nM.

Regarding `O=C1CCC(c2ccc(N3CCN(CCN4CCC(COc5ccc(Nc6ncc(F)c(Nc7ccc(C(=O)Nc8ccccc8Cl)cc7)n6)cc5)CC4)CC3)cc2)C(=O)N1` (stereo not drawn) [Compound 99, N-(2-chlorophenyl)-4-((2-((4-((1-(2-(4-(4-(2,6-dioxopiperidin-3-yl)phenyl)piperazin-1-yl)ethyl)piperidin-4-yl)methoxy)phenyl)amino)-5-fluoropyrimidin-4-yl)amino) benzamide], the “luminescence value (Level)” value was “D (D is 0.7 to 0.8)” on Aurora kinase A (AURKA) (10 nM compound) and “B (B is 0.2 to 0.4)” on Aurora kinase A (AURKA) (100 nM compound). Moreover, in the assay on NCI-H446 cell line, the IC50 is more than 200 nM.

Consider `O=C1CCC(c2ccc(N3CCC(CN4CCN(C(=O)Cc5ccc(Nc6ncc(F)c(Nc7ccc(C(=O)Nc8ccccc8Cl)cc7)n6)cc5)CC4)CC3)cc2)C(=O)N1` (stereo not drawn) [Compound 1, N-(2-chlorophenyl)-4-((2-((4-(2-(4-((1-(4-(2,6-dioxopiperidin-3-yl)phenyl)piperidin-4-yl)methyl)piperazin-1-yl)-2-oxoethyl)phenyl)amino)-5-fluoropyrimidin-4-yl)amino)benzamide], for which the entries for the “luminescence value (Level)” value on Aurora kinase A (AURKA) (10 nM compound) and on Aurora kinase A (AURKA) (100 nM compound) were “C (C is 0.5 to 0.7)” and “A (A is <0.2)”, respectively. Moreover, the 50% inhibitory concentration (IC50) with NCI-H446 cell line is 100 to 150 nM.

With `O=C1CCC(Nc2ccc(N3CC(CN4CC5CN(C(=O)c6ccc(Nc7ncc(F)c(Nc8ccc(C(=O)Nc9ccccc9Cl)cc8)n7)cc6)CC5C4)C3)cc2)C(=O)N1` (stereo not drawn) [Compound 35, N-(2-chlorophenyl)-4-((2-((4-(5-((1-(4-((2,6-dioxopiperidin-3-yl)amino)phenyl)azetidin-3-yl)methyl)octahydropyrrolo[3,4-c]pyrrole-2-carbonyl)phenyl)amino)-5-fluoropyrimidin-4-yl)amino)benzamide], the “luminescence value (Level)” value at Aurora kinase A (AURKA) (10 nM compound) is on record as “B (B is 0.3 to 0.5)”; at Aurora kinase A (AURKA) (100 nM compound), “B (B is 0.2 to 0.4)”. The IC50 with NCI-H446 cell line lay in the range of 150 to 200 nM.

For the compound `Cn1c(=O)n(C2CCC(=O)NC2=O)c2ccc(N3CCN(CCC4CCN(NC(=O)c5ccc(Nc6ncc(F)c(Nc7ccc(C(=O)Nc8ccccc8Cl)cc7)n6)cc5)CC4)CC3)cc21` (stereo not drawn) [Compound 106, N-(2-chlorophenyl)-4-((2-((4-((4-(2-(4-(1-(2,6-dioxopiperidin-3-yl)-3-methyl-2-oxo-2,3-dihydro-1H-benzo[d]imidazol-5-yl)piperazin-1-yl)ethyl)piperidin-1-yl)carbamoyl)phenyl)amino)-5-fluoropyrimidin-4-yl)amino)benzamide], the “luminescence value (Level)” value is “A (A is <0.3)” on Aurora kinase A (AURKA) (10 nM compound) and “A (A is <0.2)” on Aurora kinase A (AURKA) (100 nM compound). Also, the half-inhibitory concentration (IC50) with NCI-H446 cell line lay in the range of 100 to 150 nM.

As for `O=C1CCC(Nc2ccc(N3CCN(CCC4CCN(NC(=O)c5ccc(Nc6ncc(F)c(Nc7ccc(C(=O)Nc8ccccc8Cl)cc7)n6)cc5)CC4)CC3)c(F)c2)C(=O)N1` (stereo not drawn) [Compound 55, N-(2-chlorophenyl)-4-((2-((4-((4-(2-(4-(4-((2,6-dioxopiperidin-3-yl)amino)-2-fluorophenyl)piperazin-1-yl)ethyl)piperidin-1-yl)carbamoyl)phenyl)amino)-5-fluoropyrimidin-4-yl)amino)benzamide], the entries for the “luminescence value (Level)” value on Aurora kinase A (AURKA) (10 nM compound) and on Aurora kinase A (AURKA) (100 nM compound) were “A (A is <0.3)” and “A (A is <0.2)”, respectively. Moreover, the IC50 in the assay with NCI-H446 cell line was less than 50 nM.

For the compound `O=C1CCC(c2ccc(N3CCC(CCC(=O)N4CCC(NC(=O)c5ccc(Nc6ncc(F)c(Nc7ccc(C(=O)Nc8ccccc8Cl)cc7)n6)cc5)CC4)CC3)cc2)C(=O)N1` (stereo not drawn) [Compound 12, N-(2-chlorophenyl)-4-((2-((4-((1-(3-(1-(4-(2,6-dioxopiperidin-3-yl)phenyl)piperidin-4-yl)propanoyl)piperidin-4-yl)carbamoyl)phenyl)amino)-5-fluoropyrimidin-4-yl)amino)benzamide], the entries for the “luminescence value (Level)” value at Aurora kinase A (AURKA) (10 nM compound) and on Aurora kinase A (AURKA) (100 nM compound) were “B (B is 0.3 to 0.5)” and “A (A is <0.2)”, respectively. Further, the IC50 with NCI-H446 cell line is less than 50 nM.

Consider `O=C1CCC(Nc2ccc(N3CC(N4CCc5cc(NC(=O)c6ccc(Nc7ncc(F)c(Nc8ccc(C(=O)Nc9ccccc9Cl)cc8)n7)cc6)ccc5C4)C3)cc2)C(=O)N1` (stereo not drawn) [Compound 36, N-(2-chlorophenyl)-4-((2-((4-((2-(1-(4-((2,6-dioxopiperidin-3-yl)amino)phenyl)azetidin-3-yl)-1,2,3,4-tetrahydroisoquinolin-6-yl)carbamoyl)phenyl)amino)-5-fluoropyrimidin-4-yl)amino)benzamide], for which the “luminescence value (Level)” value on Aurora kinase A (AURKA) (10 nM compound) is recorded as “B (B is 0.3 to 0.5)”; on Aurora kinase A (AURKA) (100 nM compound), “A (A is <0.2)”. Further, the IC50 in the assay on NCI-H446 cell line lay in the range of 100 to 150 nM.

As to `O=C1CCC(Nc2ccc(N3CCC(CN4CCN(C(=O)Cc5ccc(Nc6ncc(F)c(Nc7ccc(C(=O)Nc8ccccc8Cl)cc7)n6)cc5)CC4)CC3)cc2)C(=O)N1` (stereo not drawn) [Compound 24, N-(2-chlorophenyl)-4-((2-((4-(2-(4-((1-(4-((2,6-dioxopiperidin-3-yl)amino)phenyl)piperidin-4-yl)methyl)piperazin-1-yl)-2-oxoethyl)phenyl)amino)-5-fluoropyrimidin-4-yl)amino)benzamide], the “luminescence value (Level)” value is “B (B is 0.3 to 0.5)” on Aurora kinase A (AURKA) (10 nM compound) and “A (A is <0.2)” at Aurora kinase A (AURKA) (100 nM compound). Further, the IC50 in the assay on NCI-H446 cell line is less than 50 nM.

On to `O=C1CCC(c2ccc(N3CCN(CCC4CCN(NC(=O)c5ccc(Nc6ncc(F)c(Oc7ccc(C(=O)Nc8ccccc8Cl)cc7)n6)cc5)CC4)CC3)cc2)C(=O)N1` (stereo not drawn) [Compound 101, N-(2-chlorophenyl)-4-((2-((4-((4-(2-(4-(4-(2,6-dioxopiperidin-3-yl)phenyl)piperazin-1-yl)ethyl)piperidin-1-yl)carbamoyl)phenyl)amino)-5-fluoropyrimidin-4-yl)oxy) benzamide], for which the results for the “luminescence value (Level)” value on Aurora kinase A (AURKA) (10 nM compound) and on Aurora kinase A (AURKA) (100 nM compound) were “B (B is 0.3 to 0.5)” and “A (A is <0.2)”, respectively. Also, the IC50 in the assay with NCI-H446 cell line is more than 200 nM.
